Test results as given in US20250092017A1, “2-PIPERIDYL OR 2-PYRAZOLYL SUBSTITUTED PYRIMIDINE COMPOUND SERVING AS EGFR INHIBITOR” (SUZHOU PUHE BIOPHARMA CO., LTD., priority 2022, published 2025).
Read-outs that look alike come from different tables or passages of the source.

What was measured:
[1] = target: EGFR (wild-type) (Homo sapiens, UniProt P00533); assay: MSA (Mobility Shift Assay) kinase activity, EGFR wild type; type: biochemical; settings: read-out: EGFR wt/ IC50/nM
How it was run: (§1)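 Kinase preincubated with compound 10 min at room temperature, then reaction started with ATP plus substrate in 1x kinase buffer and run at room temperature. Substrate-to-product conversion read by mobility shift; % inhibition normalised to no-enzyme and no-compound controls, IC50 from variable-slope four-parameter fit.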

[2] = target: EGFR (L858R) (Homo sapiens, UniProt P00533, L858R); assay: MSA (Mobility Shift Assay) kinase activity, EGFR-L858R; type: biochemical
EGFR (L858R), sequence (P00533 25-1210 L858R): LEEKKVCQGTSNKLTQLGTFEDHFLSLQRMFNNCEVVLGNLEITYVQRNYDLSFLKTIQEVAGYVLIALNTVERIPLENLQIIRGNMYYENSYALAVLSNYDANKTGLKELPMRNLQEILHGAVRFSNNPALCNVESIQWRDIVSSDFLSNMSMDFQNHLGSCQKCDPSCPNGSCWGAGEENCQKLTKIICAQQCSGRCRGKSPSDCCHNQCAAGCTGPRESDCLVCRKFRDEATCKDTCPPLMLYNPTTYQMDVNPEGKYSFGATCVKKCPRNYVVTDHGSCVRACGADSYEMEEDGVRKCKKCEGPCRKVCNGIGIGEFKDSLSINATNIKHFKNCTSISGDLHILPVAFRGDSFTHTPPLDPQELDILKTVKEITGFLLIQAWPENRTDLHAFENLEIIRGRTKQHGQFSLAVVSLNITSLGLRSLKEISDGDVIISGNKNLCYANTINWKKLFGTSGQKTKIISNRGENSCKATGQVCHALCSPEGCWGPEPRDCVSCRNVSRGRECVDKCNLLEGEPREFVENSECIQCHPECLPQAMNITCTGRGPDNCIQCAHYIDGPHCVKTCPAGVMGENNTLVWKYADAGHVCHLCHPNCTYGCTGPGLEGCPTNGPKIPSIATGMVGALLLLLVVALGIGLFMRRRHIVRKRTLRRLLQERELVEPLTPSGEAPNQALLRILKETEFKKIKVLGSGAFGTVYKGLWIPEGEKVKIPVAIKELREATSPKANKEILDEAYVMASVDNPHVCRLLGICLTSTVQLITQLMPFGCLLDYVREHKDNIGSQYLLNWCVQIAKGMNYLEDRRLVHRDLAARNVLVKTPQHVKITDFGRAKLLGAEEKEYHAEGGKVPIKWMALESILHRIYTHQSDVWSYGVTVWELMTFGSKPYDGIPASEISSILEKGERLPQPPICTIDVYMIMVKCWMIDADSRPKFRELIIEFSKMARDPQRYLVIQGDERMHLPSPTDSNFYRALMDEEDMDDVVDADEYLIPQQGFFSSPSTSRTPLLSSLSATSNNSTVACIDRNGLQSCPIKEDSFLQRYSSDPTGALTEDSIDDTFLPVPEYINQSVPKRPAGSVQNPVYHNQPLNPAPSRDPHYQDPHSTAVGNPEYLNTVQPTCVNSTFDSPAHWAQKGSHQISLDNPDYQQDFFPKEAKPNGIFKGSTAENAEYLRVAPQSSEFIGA
How it was run: as §1

[3] = target: EGFR (L858R/C797S) (Homo sapiens, UniProt P00533, C797S/L858R); assay: MSA (Mobility Shift Assay) kinase activity, EGFR-L858R-C797S; type: biochemical
How it was run: as §1

[4] = target: EGFR (L858R/T790M/C797S) (Homo sapiens, UniProt P00533, C797S/L858R/T790M); assay: MSA (Mobility Shift Assay) kinase activity, EGFR-L858R-T790M-C797S; type: biochemical
EGFR (L858R/T790M/C797S), sequence (P00533 25-1210 T790M/C797S/L858R): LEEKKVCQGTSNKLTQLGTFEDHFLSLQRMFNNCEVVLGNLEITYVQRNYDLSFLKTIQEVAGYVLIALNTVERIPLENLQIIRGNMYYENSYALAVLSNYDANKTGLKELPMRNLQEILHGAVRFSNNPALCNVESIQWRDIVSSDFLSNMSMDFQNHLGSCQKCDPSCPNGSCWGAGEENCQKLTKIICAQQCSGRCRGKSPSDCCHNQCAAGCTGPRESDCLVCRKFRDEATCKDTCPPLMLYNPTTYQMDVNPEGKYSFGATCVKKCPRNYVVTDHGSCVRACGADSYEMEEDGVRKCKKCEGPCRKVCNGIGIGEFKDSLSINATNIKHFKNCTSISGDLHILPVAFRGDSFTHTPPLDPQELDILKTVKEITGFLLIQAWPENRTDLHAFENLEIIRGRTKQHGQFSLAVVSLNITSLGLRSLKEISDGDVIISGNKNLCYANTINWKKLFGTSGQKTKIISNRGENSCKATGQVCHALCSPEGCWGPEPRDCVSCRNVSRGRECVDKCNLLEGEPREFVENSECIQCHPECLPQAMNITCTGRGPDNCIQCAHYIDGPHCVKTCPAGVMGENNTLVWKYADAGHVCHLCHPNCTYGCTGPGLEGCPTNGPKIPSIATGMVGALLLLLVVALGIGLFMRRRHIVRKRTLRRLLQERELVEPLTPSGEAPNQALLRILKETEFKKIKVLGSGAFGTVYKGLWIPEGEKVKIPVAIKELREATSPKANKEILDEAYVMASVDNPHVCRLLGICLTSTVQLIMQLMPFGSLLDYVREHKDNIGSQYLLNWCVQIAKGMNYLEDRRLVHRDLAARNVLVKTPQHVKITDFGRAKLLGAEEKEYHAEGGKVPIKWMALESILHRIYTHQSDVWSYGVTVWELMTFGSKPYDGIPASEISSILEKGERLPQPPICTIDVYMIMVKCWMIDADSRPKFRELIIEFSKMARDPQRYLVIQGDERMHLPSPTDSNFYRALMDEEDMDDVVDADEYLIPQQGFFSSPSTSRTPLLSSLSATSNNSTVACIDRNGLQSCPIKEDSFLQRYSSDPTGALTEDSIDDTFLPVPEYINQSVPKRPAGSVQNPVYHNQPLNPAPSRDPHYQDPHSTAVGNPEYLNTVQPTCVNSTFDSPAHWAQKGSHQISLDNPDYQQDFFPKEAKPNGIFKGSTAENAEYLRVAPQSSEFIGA
How it was run: as §1

[5] = target: T1, Ba/F3-FL-EGFR (Homo sapiens, UniProt P00533); assay: CellTiter-Glo proliferation, Ba/F3-FL-EGFR; type: cell-based; settings: 72 hours, read-out: Ba/F3-FL-EGFR IC50/nM
T1 construct: FL read as full length
T1 sequence (P00533 whole entry, change not shown): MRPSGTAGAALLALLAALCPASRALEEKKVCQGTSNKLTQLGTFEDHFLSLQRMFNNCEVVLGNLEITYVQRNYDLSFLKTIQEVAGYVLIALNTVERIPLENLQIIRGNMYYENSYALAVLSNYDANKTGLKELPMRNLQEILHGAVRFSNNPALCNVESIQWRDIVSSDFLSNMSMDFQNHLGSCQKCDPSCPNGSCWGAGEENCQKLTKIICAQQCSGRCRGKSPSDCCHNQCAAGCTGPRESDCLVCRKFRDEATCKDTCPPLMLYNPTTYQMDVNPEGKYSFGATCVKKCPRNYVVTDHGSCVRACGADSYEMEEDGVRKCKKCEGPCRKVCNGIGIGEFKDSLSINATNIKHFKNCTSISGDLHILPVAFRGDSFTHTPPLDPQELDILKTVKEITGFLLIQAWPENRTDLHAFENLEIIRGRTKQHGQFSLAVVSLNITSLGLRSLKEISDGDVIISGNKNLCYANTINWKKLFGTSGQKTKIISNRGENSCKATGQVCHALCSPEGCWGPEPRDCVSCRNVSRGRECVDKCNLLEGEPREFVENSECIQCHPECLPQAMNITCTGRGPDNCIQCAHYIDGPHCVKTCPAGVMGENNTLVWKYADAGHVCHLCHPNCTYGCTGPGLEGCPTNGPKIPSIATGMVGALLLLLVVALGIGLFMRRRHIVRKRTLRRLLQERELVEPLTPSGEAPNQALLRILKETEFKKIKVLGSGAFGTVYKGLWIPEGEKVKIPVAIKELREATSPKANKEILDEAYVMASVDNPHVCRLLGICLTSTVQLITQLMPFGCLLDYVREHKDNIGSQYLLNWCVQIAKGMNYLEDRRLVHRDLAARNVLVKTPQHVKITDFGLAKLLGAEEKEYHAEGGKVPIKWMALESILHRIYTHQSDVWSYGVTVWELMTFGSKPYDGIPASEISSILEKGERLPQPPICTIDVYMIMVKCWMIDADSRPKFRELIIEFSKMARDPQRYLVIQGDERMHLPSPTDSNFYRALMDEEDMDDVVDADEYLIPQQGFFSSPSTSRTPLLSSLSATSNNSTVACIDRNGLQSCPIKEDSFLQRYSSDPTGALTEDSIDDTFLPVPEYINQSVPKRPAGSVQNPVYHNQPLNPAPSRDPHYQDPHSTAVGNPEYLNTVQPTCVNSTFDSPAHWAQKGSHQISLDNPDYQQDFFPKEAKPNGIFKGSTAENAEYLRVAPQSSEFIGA
How it was run: (§2)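 Ba/F3 lines dependent on the indicated EGFR variants were treated with compounds at a final DMSO concentration of 0.1% at 37 °C, 5% CO2. Viability was read by CellTiter-Glo luminescence, and inhibition rate was normalised to DMSO-treated cells (max) and medium-only wells (min). IC50 came from inhibition curves.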

[6] = target: Ba/F3-FL-EGFR-L858R (Homo sapiens, UniProt P00533, L858R, cells depend on it); assay: CellTiter-Glo proliferation, Ba/F3-FL-EGFR-L858R; type: cell-based; settings: 72 hours, read-out: Ba/F3-FL-EGFR-L858R IC50/nM
How it was run: as §2

[7] = target: T2, Ba/F3-TEL-EGFR-L858R-C797S (Homo sapiens, UniProt P00533, C797S/L858R, cells depend on it); assay: CellTiter-Glo proliferation, Ba/F3-TEL-EGFR-L858R-C797S; type: cell-based; settings: 72 hours, read-out: Ba/F3-TEL-EGFR-L858R-C797S IC50/nM
T2 construct: fused on or other part: N-terminal TEL (ETV6) oligomerising part fused to the EGFR intracellular/kinase part; P41212 (Transcription factor ETV6)
How it was run: as §2

[8] = target: Ba/F3-FL-EGFR-L858R-T790M-C797S (Homo sapiens, UniProt P00533, T790M/C797S/L858R, cells depend on it); assay: CellTiter-Glo proliferation, Ba/F3-FL-EGFR-L858R-T790M-C797S; type: cell-based; settings: 72 hours, read-out: Ba/F3-FL-EGFR-L858R-T790M-C797S IC50/nM
How it was run: as §2

[9] = tested on: Ba/F3-FL-EGFR-del19-C797S; assay: CellTiter-Glo proliferation, Ba/F3-FL-EGFR-del19-C797S; type: cell-based; settings: read-out: Ba/F3-FL-EGFR-del19-C797S IC50/nM
How it was run: as §2

[10] = Liver microsome stability test, human; type: in vitro ADME; settings: human liver microsomes 0.5 mg/ml, compound 1 μM, NADPH 1 mM, within 60 minutes
Description: (§3) The compounds of the present disclosure were subjected to a liver microsome stability test. The compounds to be tested were co-incubated with liver microsomes of different species with or without the addition of NADPH. The final concentration of the compounds to be tested in the test system was 1 μM. The final concentration of NADPH was 1 mM, and the final concentration of liver microsomes was 0.5 mg/ml.

[11] = Liver microsome stability test, mouse; type: in vitro ADME; settings: mouse liver microsomes 0.5 mg/ml, compound 1 μM, NADPH 1 mM, within 60 minutes
Description: as §3

[12] = target: Ba/F3-FL-EGFR-del19-T790M-C797S (Homo sapiens, UniProt P00533, DEL746-750/T790M/C797S, cells depend on it); assay: CellTiter-Glo proliferation, Ba/F3-FL-EGFR-del19-T790M-C797S; type: cell-based; settings: 72 hours, read-out: Ba/F3-FL-EGFR-del19-T790M-C797S IC50/nM
Description: Promega CellTiter-Glo reagent was used to detect the effects of small molecule inhibitors on the proliferation of three Ba/F3 cell lines (Ba/F3-FL-EGFR-de119, Ba/F3-FL-EGFR-de119-T790M, Ba/F3-FL-EGFR-de119-T790M-C797S).
The cell lines were cultured in an incubator at 37° C. and 5% CO2. Cells were passaged regularly and cells in the logarithmic phase were used for plating. 95 μL of cell suspension was added to each well of the cell plate, and culture medium without cells (containing 0.1% DMSO) was added to the Min control wells. Substance addition for compound detection cell plate: 5 μL of 20× compound working solution was added to the cell culture plate. 5 μL of DMSO-cell culture medium mixture was added to the Max control, with the final DMSO concentration of 0.1%. 5 μL of DMSO-cell culture medium mixture was added to the Max control. The final DMSO concentration was 0.1%.
Cell viability was detected by CellTiter-Glo luminescence assay. Data analysis:
The cell proliferation inhibition rate (Inhibition Rate) data was processed using the following formula: […]
wherein: RLUDrug represents the relative luminescence unit of the cells with the addition of drug, RLUMin represents the luminescence unit of the culture medium, and RLUMax represents the relative luminescence unit of the cells with the addition of DMSO.
The inhibition rates corresponding to different concentrations of compounds were calculated in EXCEL, and then the inhibition rate curve was plotted using GraphPad Prism software and related parameters including the maximum and minimum inhibition rates of cells and IC50 values were calculated.

[13] = target: Ba/F3-FL-EGFR-Del19 (E746-A750) (Homo sapiens, UniProt P00533, DEL746-750, cells depend on it); assay: CellTiter-Glo proliferation, Ba/F3-FL-EGFR-Del19; settings: read-out: Ba/F3-FL-EGFR-Del19 (E746-A750), 72 hours
[14] = target: Ba/F3-FL-EGFR-del19/T790M (Homo sapiens, UniProt P00533, DEL746-750/T790M, cells depend on it); assay: CellTiter-Glo proliferation, Ba/F3-FL-EGFR-del19/T790M; settings: read-out: Ba/F3-FL-EGFR-del19/T790M IC50/nM, 72 hours
[15] = tested on: BaF3 (del19/T790M1C797S) tumor cells; assay: In vivo efficacy assay in BALB/c nude mice, subcutaneous BaF3 tumor; settings: 25 mg/kg, QD, oral
Description: In vivo efficacy assay in BALB/c nude mice. Details were as follows:
BaF3 (del19/T790M1C797S) tumor cells were cultured and inoculated into 6-8 weeks old female BALB/c nude mice (weighing about 20 g), with all mice being subcutaneously inoculated. The mice were cultured in an SPF-grade experimental environment, and all mice had free access to commercially certified standard diets. When the average tumor volume of the mice grew to about 150 mm^3, the test compound was orally administered daily. The dosage was as follows: blank group vehicle (DMSO/Solutol/H2O, 5/10/85). […] The tumor volume was measured three times a week with a two-dimensional caliper, and the animals were weighed every day. […] The volume calculation formula is: V=1/2a*b^2, where a represents the long diameter of the tumor, and b represents the short diameter of the tumor.

[16] = 72 h, proliferation, 72 hours, CellTiter-Glo

EGFR (wild-type), sequence (P00533 25-1210): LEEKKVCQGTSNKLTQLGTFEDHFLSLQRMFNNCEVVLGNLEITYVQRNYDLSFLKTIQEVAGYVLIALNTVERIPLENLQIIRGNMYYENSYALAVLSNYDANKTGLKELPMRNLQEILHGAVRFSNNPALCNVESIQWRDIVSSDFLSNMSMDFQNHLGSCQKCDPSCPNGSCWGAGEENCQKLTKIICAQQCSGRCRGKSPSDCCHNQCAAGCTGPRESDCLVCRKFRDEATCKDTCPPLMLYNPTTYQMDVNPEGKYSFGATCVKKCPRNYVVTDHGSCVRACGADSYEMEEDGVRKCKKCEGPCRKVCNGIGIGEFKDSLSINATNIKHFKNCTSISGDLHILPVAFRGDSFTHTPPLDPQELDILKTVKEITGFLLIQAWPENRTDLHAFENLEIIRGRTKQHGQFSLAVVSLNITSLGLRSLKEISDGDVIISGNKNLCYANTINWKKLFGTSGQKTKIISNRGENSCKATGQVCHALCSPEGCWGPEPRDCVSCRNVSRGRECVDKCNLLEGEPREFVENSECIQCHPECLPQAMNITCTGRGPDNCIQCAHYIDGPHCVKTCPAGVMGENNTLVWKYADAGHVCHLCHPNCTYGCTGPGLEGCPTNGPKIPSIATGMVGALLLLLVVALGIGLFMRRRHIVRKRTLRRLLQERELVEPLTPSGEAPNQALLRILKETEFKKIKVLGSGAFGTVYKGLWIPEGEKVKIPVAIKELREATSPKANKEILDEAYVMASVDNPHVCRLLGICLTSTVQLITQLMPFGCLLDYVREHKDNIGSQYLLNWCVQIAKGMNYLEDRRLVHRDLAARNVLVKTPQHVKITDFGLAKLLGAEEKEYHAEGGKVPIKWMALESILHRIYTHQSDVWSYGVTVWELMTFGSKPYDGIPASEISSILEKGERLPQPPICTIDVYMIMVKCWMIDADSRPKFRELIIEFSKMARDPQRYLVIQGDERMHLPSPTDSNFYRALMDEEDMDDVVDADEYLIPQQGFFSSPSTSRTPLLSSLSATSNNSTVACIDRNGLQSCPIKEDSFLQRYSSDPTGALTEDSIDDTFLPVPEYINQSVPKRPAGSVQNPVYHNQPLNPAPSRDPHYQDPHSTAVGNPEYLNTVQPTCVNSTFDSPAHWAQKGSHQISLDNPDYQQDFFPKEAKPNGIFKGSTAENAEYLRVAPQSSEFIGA

| Structure (SMILES) | IC50 [1] [nM] | IC50 [2] [nM] | IC50 [3] [nM] | IC50 [4] [nM] | GI50 [5] [nM] | GI50 [6] [nM] | GI50 [7] [nM] | GI50 [8] [nM] | IC50 ([9]; proliferation, 72 hours, CellTiter-Glo) [nM] | Human Clint/(mL/min/kg) [10] [mL/min/kg] | Mouse Clint/(mL/min/kg) [11] [mL/min/kg] | IC50 [9, 16] [nM] | CLint scaled at 1 μM [10] [mL/min/kg] | CLint scaled at 1 μM [11] [mL/min/kg] | GI50 [12] [nM] | GI50 [13] [nM] | GI50 [14] [nM] | IC50 ([9]; 72 h) [nM] | Tumor volume (mm^3) ([15]; after 13 consecutive days of administration) | TGI ([15]; after 13 consecutive days, based on final tumor volume) [%] |
| --- | --- | --- | --- | --- | --- | --- | --- | --- | --- | --- | --- | --- | --- | --- | --- | --- | --- | --- | --- | --- |
| CC(C)c1ccc(N2CC(CS(C)(=O)=O)C2)c2cnc(Nc3ccnc(-c4cnn(S(=O)(=O)C5CC5)c4)n3)cc12 [Compound H1] | 3.9 | 1.6 | 1.5 | 0.4 | 101 | 5.9 | 3.1 | 16 | 10 | <8.6 | 174 |  |  |  |  |  |  |  |  |  |
| CC(C)c1ccc(N2CC(CS(C)(=O)=O)C2)c2cnc(Nc3ccnc(-c4cnn(S(C)(=O)=O)c4)n3)cc12 [Compound H7] | 2.4 |  | 0.77 | 0.14 | 365 | 13 | 11 | 25 |  |  |  | 12 | 21.3 | 151 |  |  |  |  |  |  |
| CC(C)c1ccc(N2CC(CS(C)(=O)=O)C2)c2cnc(Nc3ccnc(-c4cnn(S(=O)(=O)N(C)C)c4)n3)cc12 [Compound H19] | 7.4 | 2.9 | 4.6 | 0.4 | 559 | 64 | 36 | 123 |  |  |  | 57 | 17.2 | 61.8 |  |  |  |  |  |  |
| CC(C)c1ccc(N2C[C@H](CS(C)(=O)=O)[C@H]2C)c2cnc(Nc3ccnc(-c4cnn(S(C)(=O)=O)c4)n3)cc12 [Compound H30] |  |  |  |  | 259 | 10 | 8.9 | 21 |  |  |  | 9.2 | 11.7 | 145 | 7.8 | 15 | 5.1 |  |  |  |
| CC(C)c1ccc(N2CC(NS(C)(=O)=O)C2)c2cnc(Nc3ccnc(N4CCC(O)C(F)C4)n3)cc12 (centres unmarked) [Compound P21] | 8.4 | 1.9 | 2.3 | 0.06 | 1510 | 76 | 38.6 | 36 |  |  |  | 205 | 13.6 | 396 |  |  |  |  |  |  |
| COC1CCN(c2nccc(Nc3cc4c(C(C)C)ccc(N5CC(NS(C)(=O)=O)C5)c4cn3)n2)CC1F (centres unmarked) [Compound P29] | 8.4 | 1.3 | 2.5 | 0.07 | 1090 | 41 | 13 | 13 |  |  |  | 202 | 23.4 | 440 |  |  |  |  |  |  |
| CC(C)c1ccc(N2CC(NS(C)(=O)=O)C2)c2cnc(Nc3ccnc(N4CCC(O)C(F)(F)C4)n3)cc12 (centres unmarked) [Compound P30] | 18.1 | 3.5 | 4.8 | 0.1 | 2340 | 111 | 48 | 47 |  |  |  | 200 | < 8.6 | 230 |  |  |  |  |  |  |
| CC(C)c1ccc(N2C[C@H](N(C)S(C)(=O)=O)[C@H]2C)c2cnc(Nc3ccnc(N4CC[C@H](O)[C@H](F)C4)n3)cc12 [Compound P41b] |  |  |  |  | 464 | 15 | 5.6 | 3.7 |  |  |  | 35 |  |  | 3.7 | 36 | 2.3 |  |  |  |
| C=CC(=O)Nc1cc(Nc2nccc(-c3cn(C)c4ccccc34)n2)c(OC)cc1N(C)CCN(C)C [Osimertinib, osimertinib, reference compound] |  |  |  |  |  |  |  |  |  |  |  |  |  |  |  |  |  | 906 | 3110 | 20 |
